This passage reports IC50 results from patent publication US9096518B2, “Substituted hydroxamic acids and uses thereof” (Millennium Pharmaceuticals, Inc., priority 2009, dated 2015).

SMILES strings stand for the structures. Where only a bound is given, the exact number is not on record here.

In the assay the target is T1, purified human HDAC6 (Homo sapiens, UniProt Q9UBN7).
T1 construct: purchased BPS Bioscience 5006
T1 sequence (Q9UBN7 1-1215): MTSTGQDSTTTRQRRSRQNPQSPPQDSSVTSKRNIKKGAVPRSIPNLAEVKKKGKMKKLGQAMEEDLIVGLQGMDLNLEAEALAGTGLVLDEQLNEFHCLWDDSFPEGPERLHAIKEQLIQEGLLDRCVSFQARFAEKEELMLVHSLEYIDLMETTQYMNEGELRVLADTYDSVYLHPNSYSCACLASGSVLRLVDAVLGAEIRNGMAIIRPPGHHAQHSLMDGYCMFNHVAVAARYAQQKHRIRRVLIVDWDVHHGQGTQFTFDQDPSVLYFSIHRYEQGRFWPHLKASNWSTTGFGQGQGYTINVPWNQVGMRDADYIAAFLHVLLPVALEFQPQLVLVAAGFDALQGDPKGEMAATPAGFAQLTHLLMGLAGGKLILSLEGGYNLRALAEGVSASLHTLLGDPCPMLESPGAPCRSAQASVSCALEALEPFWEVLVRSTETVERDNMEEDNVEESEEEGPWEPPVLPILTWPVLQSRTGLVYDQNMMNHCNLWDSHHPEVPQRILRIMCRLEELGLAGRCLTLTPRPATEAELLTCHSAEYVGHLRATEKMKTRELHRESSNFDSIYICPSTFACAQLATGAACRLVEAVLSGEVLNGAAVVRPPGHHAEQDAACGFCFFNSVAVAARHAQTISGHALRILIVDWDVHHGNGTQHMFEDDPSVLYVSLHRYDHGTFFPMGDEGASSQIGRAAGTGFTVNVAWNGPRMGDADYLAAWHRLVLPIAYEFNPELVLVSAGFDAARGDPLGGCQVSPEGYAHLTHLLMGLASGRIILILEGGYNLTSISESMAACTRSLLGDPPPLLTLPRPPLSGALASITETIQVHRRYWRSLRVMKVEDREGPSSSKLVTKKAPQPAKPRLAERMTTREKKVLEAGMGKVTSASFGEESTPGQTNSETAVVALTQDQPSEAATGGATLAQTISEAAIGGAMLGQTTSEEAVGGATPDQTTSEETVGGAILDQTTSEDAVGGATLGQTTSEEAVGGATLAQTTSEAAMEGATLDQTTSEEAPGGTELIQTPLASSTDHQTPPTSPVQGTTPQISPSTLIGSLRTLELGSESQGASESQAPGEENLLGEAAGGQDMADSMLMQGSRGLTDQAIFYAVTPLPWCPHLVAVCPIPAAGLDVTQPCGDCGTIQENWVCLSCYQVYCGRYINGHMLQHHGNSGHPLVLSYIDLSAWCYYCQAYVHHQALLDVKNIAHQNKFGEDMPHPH
The experiment in a line: HDAC6 Enzyme Assay. The class given is biochemical. As to the method: To measure the inhibition of HDAC6 activity, purified human HDAC6 (BPS Bioscience; Cat. No. 5006) is incubated with substrate Ac-Arg-Gly-Lys(Ac)-AMC peptide (Bachem Biosciences; Cat. No. I-1925) for 1 hour at 30° C. in the presence of test compounds or vehicle DMSO control. The reaction is stopped with the HDAC inhibitor trichostatin A (Sigma; Cat. No. T8552) and the amount of Arg-Gly-Lys-AMC generated is quantitated by digestion with trypsin (Sigma; Cat. No. T1426) and subsequent measurement of the amount of AMC released using a fluorescent plate reader (Pherastar; BMG Technologies) set at Ex 340 nm and Em 460 nm. Concentration response curves are generated by calculating the fluorescence increase in test compound-treated samples relative to DMSO-treated controls, and enzyme inhibition (IC50) values are determined from those curves.
Take `Cn1cccc1C(=O)N1CCc2cc(C(=O)NO)ccc2C1` [Compound 1, N-hydroxy-2-[(1-methyl-1H-pyrrol-2-yl)carbonyl]-1,2,3,4-tetrahydroisoquinoline-6-carboxamide]: the half-maximal inhibitory concentration (IC50) was under 50 nM.

For the compound `CC(C)(C)C(=O)N1CCc2cc(C(=O)NO)ccc2C1` [Compound 2, 2-(2,2-dimethylpropanoyl)-N-hydroxy-1,2,3,4-tetrahydroisoquinoline-6-carboxamide], the half-inhibitory concentration (IC50) lay in the range of 50 to 100 nM.

Compound `O=C(NO)c1ccc2c(c1)CCN(C(=O)Cc1ccc(C(F)(F)F)cc1)C2` [Compound 3, N-hydroxy-2-{[4-(trifluoromethyl)phenyl]acetyl}-1,2,3,4-tetrahydroisoquinoline-6-carboxamide] registered an IC50 of 50 to 100 nM.

`O=C(NO)c1ccc2c(c1)CCN(C(=O)C1(c3ccc(Cl)cc3)CCC1)C2` [Compound 4, 2-{[1-(4-chlorophenyl)cyclobutyl]carbonyl}-N-hydroxy-1,2,3,4-tetrahydroisoquinoline-6-carboxamide] yielded an IC50 of under 50 nM.

For `O=C(NO)c1ccc2c(c1)CCN(C(=O)C1CCCCC1)C2` [Compound 5, 2-(cyclohexylcarbonyl)-N-hydroxy-1,2,3,4-tetrahydroisoquinoline-6-carboxamide], the IC50 fell in the range of 50 to 100 nM.

`Cc1nc(CC(=O)N2CCc3cc(C(=O)NO)ccc3C2)cs1` [Compound 6, N-hydroxy-2-[(2-methyl-1,3-thiazol-4-yl)acetyl]-1,2,3,4-tetrahydroisoquinoline-6-carboxamide] returned an IC50 of 100 to 500 nM. For `O=C(NO)c1ccc2c(c1)CCN(C(=O)c1cnn(-c3ccccc3)c1)C2` [Compound 7, N-hydroxy-2-[(1-phenyl-1H-pyrazol-4-yl)carbonyl]-1,2,3,4-tetrahydroisoquinoline-6-carboxamide] the value was under 50 nM; for `O=C(NO)c1ccc2c(c1)CCN(C(=O)c1cc3ccccc3[nH]1)C2` [Compound 8, N-hydroxy-2-(1H-indol-2-ylcarbonyl)-1,2,3,4-tetrahydroisoquinoline-6-carboxamide], under 50 nM; for `CC(C)CC(=O)N1CCc2cc(C(=O)NO)ccc2C1` [Compound 9, N-hydroxy-2-(3-methylbutanoyl)-1,2,3,4-tetrahydroisoquinoline-6-carboxamide], 50 to 100 nM.

`Cc1ccc(C(C)C(=O)N2CCc3cc(C(=O)NO)ccc3C2)cc1` (centres unmarked) [Compound 10, N-hydroxy-2-[2-(4-methylphenyl)propanoyl]-1,2,3,4-tetrahydroisoquinoline-6-carboxamide] gave a half-maximal inhibitory concentration (IC50) of 50 to 100 nM.

In the case of `O=C(NO)c1ccc2c(c1)CCN(C(=O)c1cccc3ccccc13)C2` [Compound 12, N-hydroxy-2-(1-naphthoyl)-1,2,3,4-tetrahydroisoquinoline-6-carboxamide], the IC50 is 50 to 100 nM. Compound `O=C(NO)c1ccc2c(c1)CCN(C(=O)CCn1ccc3ccccc31)C2` [Compound 13, N-hydroxy-2-[3-(1H-indol-1-yl)propanoyl]-1,2,3,4-tetrahydroisoquinoline-6-carboxamide] registered an IC50 of over 500 nM. In turn, `O=C(NO)c1ccc2c(c1)CCN(C(=O)c1ccc(-n3cccc3)cc1)C2` [Compound 14, N-hydroxy-2-[4-(1H-pyrrol-1-yl)benzoyl]-1,2,3,4-tetrahydroisoquinoline-6-carboxamide] showed a half-maximal inhibitory concentration (IC50) of 50 to 100 nM. For `O=C(NO)c1ccc2c(c1)CCN(C(=O)Cc1ccccc1)C2` [Compound 15, N-hydroxy-2-(phenylacetyl)-1,2,3,4-tetrahydroisoquinoline-6-carboxamide] the value was 50 to 100 nM; for `Cc1noc(C)c1CC(=O)N1CCc2cc(C(=O)NO)ccc2C1` [Compound 16, 2-[(3,5-dimethylisoxazol-4-yl)acetyl]-N-hydroxy-1,2,3,4-tetrahydroisoquinoline-6-carboxamide], 50 to 100 nM. `CC(=O)N[C@H](CC(C)C)C(=O)N1CCc2cc(C(=O)NO)ccc2C1` [Compound 17, 2-[(2R)-2-(acetylamino)-4-methylpentanoyl]-N-hydroxy-1,2,3,4-tetrahydroisoquinoline-6-carboxamide] had an IC50 of 100 to 500 nM. As to `Cc1c(C(=O)N2CCc3cc(C(=O)NO)ccc3C2)cnn1-c1ccccc1` [Compound 18, N-hydroxy-2-[(5-methyl-1-phenyl-1H-pyrazol-4-yl)carbonyl]-1,2,3,4-tetrahydroisoquinoline-6-carboxamide], the IC50 was in the range of 50 to 100 nM.

The compound `C=CC(C)C(=O)N1CCc2cc(C(=O)NO)ccc2C1` (centres unmarked) [Compound 19, N-hydroxy-2-(2-methylbut-3-enoyl)-1,2,3,4-tetrahydroisoquinoline-6-carboxamide] yielded a concentration for half-maximal inhibition (IC50) of 50 to 100 nM.

Regarding `CC(N)(Cc1ccccc1)C(=O)N1CCc2cc(C(=O)NO)ccc2C1` (centres unmarked) [Compound 20, 2-(2-amino-2-methyl-3-phenylpropanoyl)-N-hydroxy-1,2,3,4-tetrahydroisoquinoline-6-carboxamide], the concentration for half-maximal inhibition (IC50) lay within 100 to 500 nM. `O=C(NO)c1ccc2c(c1)CCN(C(=O)COc1ccccc1)C2` [Compound 21, N-hydroxy-2-(phenoxyacetyl)-1,2,3,4-tetrahydroisoquinoline-6-carboxamide] displayed an IC50 of 50 to 100 nM. In the case of `O=C(NO)c1ccc2c(c1)CCN(C(=O)C1CCCCCC1)C2` [Compound 22, 2-(cycloheptylcarbonyl)-N-hydroxy-1,2,3,4-tetrahydroisoquinoline-6-carboxamide], the 50% inhibitory concentration (IC50) was 50 to 100 nM. The figure for `CC1(C(=O)N2CCc3cc(C(=O)NO)ccc3C2)CC1` [Compound 23, N-hydroxy-2-(1-methylcyclopropanecarbonyl)-1,2,3,4-tetrahydroisoquinoline-6-carboxamide] is 50 to 100 nM; for `O=C(NO)c1ccc2c(c1)CCN(C(=O)C1CCOC1)C2` (centres unmarked) [Compound 24, N-hydroxy-2-(tetrahydrofuran-3-ylcarbonyl)-1,2,3,4-tetrahydroisoquinoline-6-carboxamide] it is 100 to 500 nM. The figure for `O=C(NO)c1ccc2c(c1)CCN(C(=O)CC1CCCC1)C2` [Compound 25, 2-(cyclopentylacetyl)-N-hydroxy-1,2,3,4-tetrahydroisoquinoline-6-carboxamide] is under 50 nM; for `O=C(NO)c1ccc2c(c1)CCN(C(=O)C1CC=CCC1)C2` (centres unmarked) [Compound 26, 2-(cyclohex-3-en-1-ylcarbonyl)-N-hydroxy-1,2,3,4-tetrahydroisoquinoline-6-carboxamide] it is 100 to 500 nM. `CC(C)C(C(=O)N1CCc2cc(C(=O)NO)ccc2C1)c1ccccc1` (centres unmarked) [Compound 27, N-hydroxy-2-(3-methyl-2-phenylbutanoyl)-1,2,3,4-tetrahydroisoquinoline-6-carboxamide] came in with an IC50 of under 50 nM. The figure for `CC1(C(=O)N2CCc3cc(C(=O)NO)ccc3C2)CCCCC1` [Compound 28, N-hydroxy-2-[(1-methylcyclohexyl)carbonyl]-1,2,3,4-tetrahydroisoquinoline-6-carboxamide] is 100 to 500 nM; for `C[C@H](C(=O)N1CCc2cc(C(=O)NO)ccc2C1)c1ccccc1` [Compound 29, N-hydroxy-2-[(2S)-2-phenylpropanoyl]-1,2,3,4-tetrahydroisoquinoline-6-carboxamide] it is 50 to 100 nM; for `O=C(NO)c1ccc2c(c1)CCN(C(=O)Cc1ccc(-c3ccccc3)cc1)C2` [Compound 30, 2-(biphenyl-4-ylacetyl)-N-hydroxy-1,2,3,4-tetrahydroisoquinoline-6-carboxamide] it is under 50 nM.

As a reminder, the IC50 is the midpoint of a concentration-inhibition curve. A low value points to higher potency.
